The text below walks through data of patent US7981903B2, “2-[2-{phenylamino}-1H-pyrrolo[2,3-D]pyrimidin-4-yl)amino] benzamide derivatives as IGF-1R inhibitors for the treatment of cancer” (GlaxoSmithKline LLC, priority 2007, dated 2011).

One experiment addresses T1, human IGF1R (hIGF1R) (Homo sapiens, UniProt P08069).
T1 construct: containing amino acid residues 957-1367 of human IGF1R; made in house; host or cells: Sf9 cells (baculovirus)
Kind of experiment: TR-FRET kinase assay of purified hIGF1R. Format: biochemical. The note with it: activated hIGF1R 0.5 nM, 10 μM ATP, values given as pIC50 category, read-out: IGF-1R pIC50 (converted). On the technique in general: TR-FRET usually uses a lanthanide donor and a delayed reading to cut background.

Another experiment deals with Colo205. Kind of experiment: Inhibition of cell proliferation (CellTiter-Glo or InCell analyzer), Colo205. Format: cell-based. The note with it: Homo sapiens, COLO 205, 72 h / 3 days, values given as IC50 category. A digest of the protocol:
In one
Background: In ATP-based viability assays light output follows the ATP content of the culture.

The target of a further experiment is T2, human IR (hIR) (Homo sapiens, UniProt P06213).
T2 construct: containing amino acid residues 979-1382 of human IR; made in house; host or cells: Sf9 cells (baculovirus), same process as hIGF1R
T2 sequence (P06213 979-1382): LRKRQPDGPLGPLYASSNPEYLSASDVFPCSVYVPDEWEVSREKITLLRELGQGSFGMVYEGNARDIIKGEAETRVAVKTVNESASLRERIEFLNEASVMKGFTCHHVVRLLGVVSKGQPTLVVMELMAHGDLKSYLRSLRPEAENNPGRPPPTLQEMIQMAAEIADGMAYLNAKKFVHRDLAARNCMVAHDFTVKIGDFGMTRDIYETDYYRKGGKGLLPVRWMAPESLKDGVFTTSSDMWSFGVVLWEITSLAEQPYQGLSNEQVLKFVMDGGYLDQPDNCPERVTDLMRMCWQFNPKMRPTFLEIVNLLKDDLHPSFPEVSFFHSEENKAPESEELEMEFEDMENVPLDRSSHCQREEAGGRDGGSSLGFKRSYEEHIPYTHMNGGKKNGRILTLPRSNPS
Kind of experiment: TR-FRET kinase assay of purified hIR. It is filed as biochemical. Particulars: activated hIR 0.5 nM, 10 μM ATP, values given as pIC50 category.

T1 sequence (P08069 957-1367): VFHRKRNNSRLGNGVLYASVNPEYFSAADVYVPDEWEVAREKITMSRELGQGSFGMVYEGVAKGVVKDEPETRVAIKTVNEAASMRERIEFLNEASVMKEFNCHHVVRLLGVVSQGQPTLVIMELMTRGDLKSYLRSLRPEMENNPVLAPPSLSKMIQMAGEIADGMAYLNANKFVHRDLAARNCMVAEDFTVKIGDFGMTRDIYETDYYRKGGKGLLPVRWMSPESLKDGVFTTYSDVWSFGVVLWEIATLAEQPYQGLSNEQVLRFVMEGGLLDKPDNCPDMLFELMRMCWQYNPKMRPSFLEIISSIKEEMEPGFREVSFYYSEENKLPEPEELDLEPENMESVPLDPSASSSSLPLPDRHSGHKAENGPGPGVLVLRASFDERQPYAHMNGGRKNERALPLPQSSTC

Consider `COc1cc(N2CCN(CC3CC3)CC2)ccc1Nc1nc(Nc2cc(F)ccc2C(N)=O)c2cc[nH]c2n1` [Example 81, 2-[(2-{[4-[4-(cyclopropylmethyl)-1-piperazinyl]-2-(methyloxy)phenyl]amino}-1H-pyrrolo[2,3-d]pyrimidin-4-yl)amino]-4-fluorobenzamide], for which the IC50 was 1.26 to 3.98 nM on human IGF1R (hIGF1R), less than 250 nM in the experiment on Colo205 and 1.26 to 3.98 nM at human IR (hIR).
In the case of `COc1cc(N2CCCN(C)CC2)ccc1Nc1nc(Nc2cccc(F)c2C(N)=O)c2cc[nH]c2n1` [Example 209, 2-fluoro-6-[(2-{[4-(4-methylhexahydro-1H-1,4-diazepin-1-yl)-2-(methyloxy)phenyl]amino}-1H-pyrrolo[2,3-d]pyrimidin-4-yl)amino]benzamide], the IC50 was 1.26 to 3.98 nM at human IGF1R (hIGF1R), less than 250 nM in the experiment with Colo205 and 1.26 to 3.98 nM at human IR (hIR).
Take `COc1cc(N2CCC(N3CCN(CCF)CC3)CC2)ccc1Nc1nc(Nc2cccc(F)c2C(N)=O)c2cc[nH]c2n1` [Example 114, 2-fluoro-6-[(2-{[4-{4-[4-(2-fluoroethyl)-1-piperazinyl]-1-piperidinyl}-2-(methyloxy)phenyl]amino}-1H-pyrrolo[2,3-d]pyrimidin-4-yl)amino]benzamide]: the values for the IC50 on human IGF1R (hIGF1R), in the experiment with Colo205 and against human IR (hIR) were 1.26 to 3.98 nM, less than 250 nM and 1.26 to 3.98 nM, respectively.
As to `COc1cc2c(cc1Nc1nc(Nc3cccc(F)c3C(=O)NCC(C)C)c3cc[nH]c3n1)N(C(=O)CN(C)C)CC2` [Example 157, 2-[(2-{[1-(N,N-dimethylglycyl)-5-(methyloxy)-2,3-dihydro-1H-indol-6-yl]amino}-1H-pyrrolo[2,3-d]pyrimidin-4-yl)amino]-6-fluoro-N-(2-methylpropyl)benzamide], the IC50 was 1.26 to 3.98 nM on human IGF1R (hIGF1R), greater than 1000 nM with Colo205 and 1.26 to 3.98 nM against human IR (hIR).
Take `CCN(C)CC(=O)N1CCc2cc(OC)c(Nc3nc(Nc4cccc(F)c4C(N)=O)c4cc[nH]c4n3)cc21` [Example 166, 2-[(2-{[1-(N-ethyl-N-methylglycyl)-5-(methyloxy)-2,3-dihydro-1H-indol-6-yl]amino}-1H-pyrrolo[2,3-d]pyrimidin-4-yl)amino]-6-fluorobenzamide]: the IC50 at human IGF1R (hIGF1R) is 1.26 to 3.98 nM; with Colo205, 250 to 1000 nM; against human IR (hIR), 1.26 to 3.98 nM.
Consider `COc1cc(N2CCN(C(C)=O)CC2)ccc1Nc1nc(Nc2cc(F)c(F)cc2C(N)=O)c2cc[nH]c2n1` [Example 103, 2-[(2-{[4-(4-acetyl-1-piperazinyl)-2-(methyloxy)phenyl]amino}-1H-pyrrolo[2,3-d]pyrimidin-4-yl)amino]-4,5-difluorobenzamide], for which the results for the IC50 at human IGF1R (hIGF1R), in the experiment with Colo205 and against human IR (hIR) were 0.251 to 1 nM, less than 250 nM and 0.251 to 1 nM, respectively.
Consider `COc1cc(C2=CCN(C(C)C)CC2)ccc1Nc1nc(Nc2cc(F)ccc2C(N)=O)c2cc[nH]c2n1` [Example 72, 4-fluoro-2-[(2-{[4-[1-(1-methylethyl)-1,2,3,6-tetrahydro-4-pyridinyl]-2-(methyloxy)phenyl]amino}-1H-pyrrolo[2,3-d]pyrimidin-4-yl)amino]benzamide], for which the IC50 is 0.251 to 1 nM on human IGF1R (hIGF1R), 250 to 1000 nM in the experiment with Colo205 and 0.251 to 1 nM against human IR (hIR).
With `COc1cc2c(cc1Nc1nc(Nc3ccc(F)c(F)c3C(N)=O)c3cc[nH]c3n1)N(C(=O)CN(C)C)CCC2` [Example 162, 6-[(2-{[1-(N,N-dimethylglycyl)-6-(methyloxy)-1,2,3,4-tetrahydro-7-quinolinyl]amino}-1H-pyrrolo[2,3-d]pyrimidin-4-yl)amino]-2,3-difluorobenzamide], the IC50 at human IGF1R (hIGF1R) is 1.26 to 3.98 nM; in the experiment with Colo205 it was less than 250 nM; against human IR (hIR), 0.251 to 1 nM.
For `COc1cc2c(cc1Nc1nc(Nc3cc(F)cc(F)c3C(=O)NCC(C)C)c3cc[nH]c3n1)N(C(=O)CN(C)C)CC2` [Example 154, 2-[(2-{[1-(N,N-dimethylglycyl)-5-(methyloxy)-2,3-dihydro-1H-indol-6-yl]amino}-1H-pyrrolo[2,3-d]pyrimidin-4-yl)amino]-4,6-difluoro-N-(2-methylpropyl)benzamide] the same measures were 1.26 to 3.98 nM, greater than 1000 nM and 1.26 to 3.98 nM.
For `COc1cc(N2CCC(N3CC[C@H](F)C3)CC2)ccc1Nc1nc(Nc2cccc(F)c2C(N)=O)c2cc[nH]c2n1` [Example 43, 2-fluoro-6-[(2-{[4-{4-[(3S)-3-fluoro-1-pyrrolidinyl]-1-piperidinyl}-2-(methyloxy)phenyl]amino}-1H-pyrrolo[2,3-d]pyrimidin-4-yl)amino]benzamide] the same measures were 1.26 to 3.98 nM, 250 to 1000 nM and 1.26 to 3.98 nM.
Regarding `CNC(=O)c1c(F)cccc1Nc1nc(Nc2cc3c(cc2OC)CCN3C(=O)CN2CCCC2)nc2[nH]ccc12` [Example 139, 2-fluoro-N-methyl-6-[(2-{[5-(methyloxy)-1-(1-pyrrolidinylacetyl)-2,3-dihydro-1H-indol-6-yl]amino}-1H-pyrrolo[2,3-d]pyrimidin-4-yl)amino]benzamide], the results for the IC50 on human IGF1R (hIGF1R), in the experiment with Colo205 and on human IR (hIR) were 1.26 to 3.98 nM, 250 to 1000 nM and 1.26 to 3.98 nM, respectively.
In the case of `CCN(CCO)CC(=O)N1CCc2cc(OC)c(Nc3nc(Nc4cccc(F)c4C(N)=O)c4cc[nH]c4n3)cc21` [Example 177, 2-[(2-{[1-[N-ethyl-N-(2-hydroxyethyl)glycyl]-5-(methyloxy)-2,3-dihydro-1H-indol-6-yl]amino}-1H-pyrrolo[2,3-d]pyrimidin-4-yl)amino]-6-fluorobenzamide], the results for the IC50 at human IGF1R (hIGF1R), with Colo205 and against human IR (hIR) were 1.26 to 3.98 nM, greater than 1000 nM and 1.26 to 3.98 nM, respectively.
Turning to `CNCC(=O)N1CCc2cc(OC)c(Nc3nc(Nc4cccc(F)c4C(N)=O)c4cc[nH]c4n3)cc21` [Example 142, 2-fluoro-6-[(2-{[1-(N-methylglycyl)-5-(methyloxy)-2,3-dihydro-1H-indol-6-yl]amino}-1H-pyrrolo[2,3-d]pyrimidin-4-yl)amino]benzamide], the IC50 was 1.26 to 3.98 nM on human IGF1R (hIGF1R), 250 to 1000 nM with Colo205 and 1.26 to 3.98 nM on human IR (hIR).
On to `COc1cc2c(cc1Nc1nc(Nc3cccc(F)c3C(N)=O)c3cc[nH]c3n1)CN(C(C)C)CC2` [Example 236, 2-fluoro-6-[(2-{[2-(1-methylethyl)-6-(methyloxy)-1,2,3,4-tetrahydro-7-isoquinolinyl]amino}-1H-pyrrolo[2,3-d]pyrimidin-4-yl)amino]benzamide], for which the IC50 was 1.26 to 3.98 nM at human IGF1R (hIGF1R), 250 to 1000 nM in the experiment with Colo205 and 1.26 to 3.98 nM against human IR (hIR).
As to `COc1cc(N2CCOC[C@@H]2C)ccc1Nc1nc(Nc2cc(F)c(F)cc2C(N)=O)c2cc[nH]c2n1` [Example 105, 4,5-difluoro-2-[(2-{[4-[(3S)-3-methyl-4-morpholinyl]-2-(methyloxy)phenyl]amino}-1H-pyrrolo[2,3-d]pyrimidin-4-yl)amino]benzamide], the values for the IC50 on human IGF1R (hIGF1R), with Colo205 and against human IR (hIR) were 0.251 to 1 nM, less than 250 nM and 0.251 to 1 nM, respectively.
For the compound `COc1ccc(N2CCN(C)CC2)cc1Nc1nc(Nc2ccccc2C(N)=O)c2cc[nH]c2n1` [Example 9, 2-[(2-{[2-(methyloxy)-5-(4-methyl-1-piperazinyl)phenyl]amino}-1H-pyrrolo[2,3-d]pyrimidin-4-yl)amino]benzamide], the IC50 at human IGF1R (hIGF1R) was 1.26 to 3.98 nM; with Colo205, less than 250 nM; at human IR (hIR), 1.26 to 3.98 nM.
Consider `COc1cc(N2CCC(O)CC2)ccc1Nc1nc(Nc2cc(F)c(F)cc2C(N)=O)c2cc[nH]c2n1` [Example 99], for which the IC50 is 0.251 to 1 nM at human IGF1R (hIGF1R), 250 to 1000 nM in the experiment with Colo205 and 0.251 to 1 nM against human IR (hIR).
As to `CNC(=O)c1c(F)cccc1Nc1nc(Nc2cc3c(cc2OC)CCCN3C(=O)CN(C)C)nc2[nH]ccc12` [Example 212, 2-[(2-{[1-(N,N-dimethylglycyl)-6-(methyloxy)-1,2,3,4-tetrahydro-7-quinolinyl]amino}-1H-pyrrolo[2,3-d]pyrimidin-4-yl)amino]-6-fluoro-N-methylbenzamide], the IC50 at human IGF1R (hIGF1R) is 1.26 to 3.98 nM; with Colo205 it was 250 to 1000 nM; on human IR (hIR) it was 1.26 to 3.98 nM.
